Patent publication US10851082B2, “Substituted aromatic n-heterocyclic compounds as inhibitors of mitogen-activated protein kinase interacting kinase 1 (MNK1) and 2 (MNK2)” (Northwestern University, priority 2015, dated 2020)
Like-named read-outs stand apart in the source and are kept apart here.

Tests used:
Mnk1 = Mnk1 (Homo sapiens (Human), UniProt Q9BUB5); assay: Mnk1 kinase inhibition, ADP-Glo ADP monitoring assay; format: biochemical
Method: (§1) The synthesized compounds then were tested for inhibition of the kinase activity (IC50) of Mnk1 and/or Mnk2 using the ADP monitoring assay for kinases described in Zegzouti, H.; Zdanovskaia, M.; Hsiao, K.; Goueli, S. A., ADP-Glo: A Bioluminescent and homogeneous ADP monitoring assay for kinases.

Mnk2 = Mnk2 (Homo sapiens (Human), UniProt Q9HBH9); assay: Mnk2 kinase inhibition, ADP-Glo ADP monitoring assay; format: biochemical
Chain of Mnk2 (Q9HBH9 whole entry): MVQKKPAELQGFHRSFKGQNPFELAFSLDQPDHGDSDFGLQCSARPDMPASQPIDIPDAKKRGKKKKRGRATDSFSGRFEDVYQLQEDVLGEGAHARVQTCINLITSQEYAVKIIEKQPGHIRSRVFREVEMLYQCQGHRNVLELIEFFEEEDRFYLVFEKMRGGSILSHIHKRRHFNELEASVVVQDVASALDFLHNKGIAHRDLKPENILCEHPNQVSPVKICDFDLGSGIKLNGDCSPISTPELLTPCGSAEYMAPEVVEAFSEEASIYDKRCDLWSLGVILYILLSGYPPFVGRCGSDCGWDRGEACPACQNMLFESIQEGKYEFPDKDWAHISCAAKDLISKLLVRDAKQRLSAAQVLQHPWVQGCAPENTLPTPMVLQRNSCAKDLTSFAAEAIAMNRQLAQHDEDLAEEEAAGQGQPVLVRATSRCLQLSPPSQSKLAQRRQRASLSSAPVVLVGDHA
Method: as §1

[1] = ADP-Glo kinase assay, read-out: Mnk2 IC50
[2] = unit inferred, read-out: Mnk1 IC50
[3] = ADP-Glo kinase assay, unit inferred, read-out: Mnk2 IC50
[4] = read-out: Mnk1 inhibition IC50 (+,++,+++)
[5] = ADP-Glo kinase assay, read-out: Mnk2 inhibition IC50 (+,++,+++)

Chain of Mnk1 (Q9BUB5 whole entry): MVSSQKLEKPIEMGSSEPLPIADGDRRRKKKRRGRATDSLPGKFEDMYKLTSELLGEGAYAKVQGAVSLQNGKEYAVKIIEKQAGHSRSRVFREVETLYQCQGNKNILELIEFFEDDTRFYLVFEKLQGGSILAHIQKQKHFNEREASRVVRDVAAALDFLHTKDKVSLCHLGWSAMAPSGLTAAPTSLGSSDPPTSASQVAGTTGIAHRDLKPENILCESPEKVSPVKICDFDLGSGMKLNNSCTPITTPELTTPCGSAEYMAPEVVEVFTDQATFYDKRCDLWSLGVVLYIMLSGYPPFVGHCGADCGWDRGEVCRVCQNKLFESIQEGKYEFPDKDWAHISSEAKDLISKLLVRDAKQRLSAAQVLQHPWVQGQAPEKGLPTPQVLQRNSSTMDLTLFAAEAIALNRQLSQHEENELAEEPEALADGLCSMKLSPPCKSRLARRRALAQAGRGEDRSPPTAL

Structure (SMILES)	IC50 (Mnk1; read-out: Mnk1 IC50)	IC50 (Mnk2; [1])	IC50 (Mnk1; [4])	further results
Clc1cnc(NCc2cccnc2)nc1-n1cnc2ccccc21 [NUCC-0176360]	4500 nM	1000 nM		
c1ccc2c(c1)ncn2-c1nccc(NCCc2c[nH]c3ccccc23)n1 [NUCC-0196261]				IC50 (Mnk1; [2]): 920 nM; IC50 (Mnk2; [3]): 110 nM
Clc1cnc(NCCc2cccnc2)nc1-n1cnc2ccccc21 [NUCC-0176357]	2300 nM	250 nM		
Nc1cnc(NCCc2ccncc2)nc1-n1cnc2ccccc21 [NUCC-0196231]				IC50 (Mnk1; [2]): > 10000 nM; IC50 (Mnk2; [3]): > 10000 nM
c1ccc(Cn2cc(-c3ccnc(NCCc4c[nH]cn4)c3)cn2)cc1 [NUCC-0077167]	8000 nM	7600 nM		
N[C@H]1C[C@H](Oc2ncc(Cl)c(-n3cnc4ccccc43)n2)C1 [NUCC-0201052]			< 1000 nM	IC50 (Mnk2; [5]): < 1000 nM
c1ccc(C2CC2Nc2nccc(-n3cnc4ccccc43)n2)cc1 (stereo not shown) [NUCC-0196255]				IC50 (Mnk1; [2]): > 10000 nM; IC50 (Mnk2; [3]): 920 nM
Clc1cnc(OC2CCOC2)nc1-n1cnc2ccccc21 (stereo not shown) [NUCC-0200805]			< 1000 nM	IC50 (Mnk2; [5]): < 1000 nM
NC(=O)c1cc(-n2cnc3ccccc32)nc(NCCc2ccncc2)n1 [NUCC-0196265]				IC50 (Mnk1; [2]): 1600 nM; IC50 (Mnk2; [3]): 890 nM
CCOC(=O)c1cnc(NCCc2ccncc2)nc1-n1cnc2ccccc21 [NUCC-0196310]				IC50 (Mnk1; [2]): 2100 nM; IC50 (Mnk2; [3]): 5400 nM
COc1cccc(-c2cn(-c3ccnc(NCCc4c[nH]cn4)n3)c3ccccc23)c1 [NUCC-0125599]	29000 nM	6200 nM		
N#Cc1cnc(NCCCc2ccncc2)nc1-n1cnc2ccccc21 [NUCC-0200913]			> 10000 nM	IC50 (Mnk2; [5]): > 10000 nM
COc1cccc(-n2cc(-c3ccnc(NCCc4c[nH]cn4)n3)cn2)c1 [NUCC-0054133]	7000 nM	1800 nM		
c1ccc2c(c1)ncn2-c1ccnc(NN2CCOCC2)n1 [NUCC-0176146]	12000 nM	1000 nM		
O=C(Nc1ccccc1)Nc1nccc(-n2cnc3ccccc32)n1 [NUCC-0176351]				Mnk1 IC50 (Mnk1): no activity; Mnk2 IC50 (Mnk2; ADP-Glo kinase assay): no activity
Clc1cnc(OCCC2CCNCC2)nc1-n1cnc2ccccc21 [NUCC-0201002]			< 1000 nM	IC50 (Mnk2; [5]): < 1000 nM
c1ccc2c(c1)cnn2-c1ccnc(NCCc2ccncc2)n1 [NUCC-0176346]	5400 nM	4700 nM		
O=C1CCN(c2ncc(Cl)c(-n3cnc4ccccc43)n2)C1 [NUCC-0201051]			1000 to 10000 nM	IC50 (Mnk2): 1000 to 10000 nM
c1ccc2c(c1)ncn2-c1ccnc(NC2CCOCC2)n1 [NUCC-0125595]	500 nM	83 nM		
O[C@@H](c1ccccc1)[C@H](Nc1nccc(-n2cnc3ccccc32)n1)c1ccccc1 [NUCC-0196256]				IC50 (Mnk1; [2]): 7300 nM; IC50 (Mnk2; [3]): 3800 nM
c1ccc2c(c1)ncn2-c1cc(NCCc2ccncc2)cnn1 [NUCC-0176338]				Mnk1 IC50 (Mnk1): no activity; Mnk2 IC50 (Mnk2; ADP-Glo kinase assay): no activity
O=C(NC1CC1)c1cc(-n2cnc3ccccc32)nc(NCCc2ccncc2)n1 [NUCC-0196234]				IC50 (Mnk1; [2]): > 10000 nM; IC50 (Mnk2; [3]): 5400 nM
OC1CCC(Nc2nccc(-n3cnc4ccccc43)n2)CC1 (stereo not shown) [NUCC-0176145]	400 nM	52 nM		
N[C@H]1C[C@@H](Oc2ncc(Cl)c(-n3cnc4ccccc43)n2)C1 [NUCC-0201047]			< 1000 nM	IC50 (Mnk2; [5]): < 1000 nM
Clc1cnc(NCCc2ccncc2)nc1-n1ccc2c(Cl)ncnc21 [NUCC-0200911]			> 10000 nM	IC50 (Mnk2; [5]): > 10000 nM
N#Cc1cnc(NCCc2ccncc2)nc1-n1cnc(-c2ccccc2)c1 [NUCC-0196264]				IC50 (Mnk1; [2]): 96 nM; IC50 (Mnk2; [3]): 57 nM
O[C@@H]1CC[C@@H](Nc2nccc(-n3cnc4ccccc43)n2)C1 [NUCC-0176165]	340 nM	61 nM		

Structure (SMILES)	IC50 (Mnk1; read-out: Mnk1 IC50)	IC50 (Mnk2; [1])	IC50 (Mnk1; [4])	further results
Oc1cnc(NCCc2ccncc2)nc1-n1cnc2ccccc21 [NUCC-0196263]				IC50 (Mnk1; [2]): > 10000 nM; IC50 (Mnk2; [3]): > 10000 nM
CCc1nc(OC2CC(N)C2)nc(-n2cnc3ccccc32)c1Cl (stereo not shown) [NUCC-0201916]			1000 to 10000 nM	IC50 (Mnk2): 1000 to 10000 nM
O=C(O)CNc1ncc(Cl)c(-n2cnc3ccccc32)n1 [NUCC-0176361]				Mnk1 IC50 (Mnk1): no activity; Mnk2 IC50 (Mnk2; ADP-Glo kinase assay): no activity
NC1CC(Oc2ncc(Cl)c(-n3cnc(C(F)(F)F)c3)n2)C1 (stereo not shown) [NUCC-0201664]			< 1000 nM	IC50 (Mnk2): 1000 to 10000 nM
N#Cc1cnc(NC2CNC(=O)C2)nc1-n1cnc2ccccc21 (stereo not shown) [NUCC-0201905]			< 1000 nM	IC50 (Mnk2; [5]): < 1000 nM
COc1cnc(NCCc2ccncc2)nc1-n1cnc2ccccc21 [NUCC-0175698]	5000 nM	1800 nM		
NC1CC(Oc2ncc(C(F)(F)F)c(-n3cnc4ccccc43)n2)C1 (stereo not shown) [NUCC-0201663]			< 1000 nM	IC50 (Mnk2): 1000 to 10000 nM
FC(F)(F)c1cc(NC(=S)Nc2nccc(-n3cnc4ccccc43)n2)cc(C(F)(F)F)c1 [NUCC-0176363]				Mnk1 IC50 (Mnk1): no activity; Mnk2 IC50 (Mnk2; ADP-Glo kinase assay): no activity
O=C1NCCCCC1Nc1nccc(-n2cnc3ccccc32)n1 (stereo not shown) [NUCC-0176367]	2600 nM	500 nM		
O[C@@H](c1ccccc1)[C@H](Nc1ccnc(-n2cnc3ccccc32)n1)c1ccccc1 [NUCC-0196258]				IC50 (Mnk1; [2]): > 10000 nM; IC50 (Mnk2; [3]): 7000 nM
N#Cc1cnc(NCCc2ccncc2)nc1-n1nnc2ccccc21 [NUCC-0200802]			> 10000 nM	IC50 (Mnk2; [5]): > 10000 nM
FC(F)(F)c1cnc(NC23CC(C2)C3)nc1-n1cnc2ccccc21 [NUCC-0201888]			< 1000 nM	IC50 (Mnk2; [5]): < 1000 nM
O=C(O)c1cc(-n2cnc3ccccc32)nc(NCCc2ccncc2)n1 [NUCC-0196239]				IC50 (Mnk1; [2]): > 10000 nM; IC50 (Mnk2; [3]): 6900 nM
N#Cc1ccc(CCNc2ncc(Cl)c(-n3cnc4ccccc43)n2)cc1 [NUCC-0200785]			> 10000 nM	IC50 (Mnk2; [5]): < 1000 nM
Clc1cnc(NCCCc2ccncc2)nc1-n1cnc2ccccc21 [NUCC-0200912]			> 10000 nM	IC50 (Mnk2): 1000 to 10000 nM
Fc1cnc(NCCc2ccncc2)nc1-n1ccc2ccccc21 [NUCC-0176283]	8700 nM	10000 nM		
O=C1CCCN1CCCNc1nccc(-n2cnc3ccccc32)n1 [NUCC-0176344]	7200 nM	780 nM		
N#Cc1cnc(OCCN2CCOCC2)nc1-n1cnc2ccccc21 [NUCC-0200791]			1000 to 10000 nM	IC50 (Mnk2; [5]): < 1000 nM
N#Cc1cnc(OCCc2cccnc2)nc1-n1cnc2ccccc21 [NUCC-0201005]			1000 to 10000 nM	IC50 (Mnk2): 1000 to 10000 nM
O=c1c2ccccc2nnn1-c1ccnc(NCCc2ccncc2)n1 [NUCC-0176350]				Mnk1 IC50 (Mnk1): no activity; Mnk2 IC50 (Mnk2; ADP-Glo kinase assay): no activity
N#Cc1cnc(OCc2ccncc2)nc1-n1cnc2ccccc21 [NUCC-0200904]			1000 to 10000 nM	IC50 (Mnk2): 1000 to 10000 nM
NC(=O)c1cccc(-c2cnc(OC3CC(N)C3)nc2-n2cnc3ccccc32)c1 (stereo not shown) [NUCC-0201899]			1000 to 10000 nM	IC50 (Mnk2; [5]): < 1000 nM
NC1CC(Oc2ncc(Cl)c(-n3cnc4ccccc43)n2)C1 (stereo not shown) [NUCC-0201004]			< 1000 nM	IC50 (Mnk2; [5]): < 1000 nM
CC(C)(COc1nc(-n2cnc3ccccc32)ncc1C#N)c1ccnc(F)c1 [NUCC-0201908]			1000 to 10000 nM	IC50 (Mnk2): 1000 to 10000 nM
COCCNc1nccc(-n2cnc3ccccc32)n1 [NUCC-0176342]	1600 nM	200 nM		
Cc1ccc2c(c1)ncn2-c1nc(NCCc2ccncc2)ncc1Cl [NUCC-0200908]			> 10000 nM	IC50 (Mnk2): 1000 to 10000 nM

Further lines, with some results ahead:

IC50 (Mnk1; read-out: Mnk1 IC50)	IC50 (Mnk2; [1])	IC50 (Mnk1; [4])	Structure (SMILES)	further results
450 nM	82 nM		OC1CCCC1Nc1nccc(-n2cnc3ccccc32)n1 (stereo not shown) [NUCC-0176147]	
550 nM	69 nM		c1cncc(CCNc2nccc(-n3cnc4ccccc43)n2)c1 [NUCC-0176340]	
		1000 to 10000 nM	NC1CCN(c2ncc(Cl)c(-n3cnc4ccccc43)n2)C1 (stereo not shown) [NUCC-0201006]	IC50 (Mnk2): 1000 to 10000 nM
		< 1000 nM	N#Cc1cnc(OCCc2ccnc(F)c2)nc1-n1cnc2ccccc21 [NUCC-0201918]	IC50 (Mnk2; [5]): < 1000 nM
		< 1000 nM	CC(C)(COc1nc(-n2cnc3ccccc32)ncc1Cl)c1ccnc(F)c1 [NUCC-0201920]	IC50 (Mnk2; [5]): < 1000 nM
		1000 to 10000 nM	NC(=O)c1cccc(-c2cnc(OC3CCNC3)nc2-n2cnc3ccccc32)c1 (stereo not shown) [NUCC-0201901]	IC50 (Mnk2; [5]): < 1000 nM
200 nM	34 nM		CNC(=O)c1ccc(Nc2nccc(-n3cnc4ccccc43)n2)cc1 [NUCC-0125596]	
		1000 to 10000 nM	N#Cc1cnc(OC2CC(N)C2)nc1-n1cnc(-c2ccc(Cl)c(Cl)c2)c1 (stereo not shown) [NUCC-0201248]	IC50 (Mnk2; [5]): < 1000 nM
		1000 to 10000 nM	CC(C)(COc1ncc(Cl)c(OCC(C)(C)c2ccnc(F)c2)n1)c1ccnc(F)c1 [NUCC-0201919]	IC50 (Mnk2): 1000 to 10000 nM
		1000 to 10000 nM	FC(F)(F)c1cc(Cl)c2ncn(-c3nc(OCCc4ccccn4)ncc3Cl)c2c1 [NUCC-0201020]	IC50 (Mnk2): 1000 to 10000 nM
11000 nM	10000 nM		c1ccc2c(c1)c1ccccc1n2-c1ccnc(NCCc2ccncc2)n1 [NUCC-0176339]	
16000 nM	5000 nM		c1ccc2c(c1)ccn2-c1ccnc(NCCc2cnc[nH]2)n1 [NUCC-0060955]	
		< 1000 nM	N#Cc1cnc(NC2C3CC2C3)nc1-n1cnc2ccccc21 (stereo not shown) [NUCC-0201137, 4-(1H-benzo[d]imidazol-1-yl)-2-(bicyclo[1.1.1]pentan-2-ylamino)pyrimidine-5-carbonitrile]	IC50 (Mnk2; [5]): < 1000 nM
390 nM	44 nM		c1ccc2c(c1)ncn2-c1ccnc(NC2CCCOC2)n1 (stereo not shown) [NUCC-0176151]	
		> 10000 nM	FC(F)(F)c1ccc(CCNc2ncc(Cl)c(-n3cnc4ccccc43)n2)cc1 [NUCC-0200784]	IC50 (Mnk2): 1000 to 10000 nM
		1000 to 10000 nM	CC(C)(COc1ncc(Cl)c(-n2cnc3ccccc32)n1)c1ccncc1 [NUCC-0201593, 1-(5-chloro-2-(2-methyl-2-(pyridin-4-yl)propoxy)pyrimidin-4-yl)-1H-benzo[d]imidazole]	IC50 (Mnk2; [5]): < 1000 nM
2600 nM	1200 nM		c1ccc2c(c1)ncn2-c1cc(NCCc2ccncc2)ncn1 [NUCC-0176284]	
		< 1000 nM	N#Cc1cnc(OCc2cccnc2)nc1-n1cnc2ccccc21 [NUCC-0200903]	IC50 (Mnk2; [5]): < 1000 nM
